Consider two compounds from patent US20070053985A1, “Coenzyme Q10-containing fine particle with excellent dispersibility” (KANEKA CORPORATION, priority 2005, published 2007).

Data set [1] is described as follows: Dispersibility in water, mixture stirred violently. The format is physicochemical. Conditions: 5 mg added into 100 mL of water, stirring violently. As to the method: Oxidized coenzyme Q10 crystals (5 mg) or reduced coenzyme Q10 crystals (5 mg) as obtained in the Production Example 1 was added into 100 mL of water, and each mixture was then stirring violently. In the both mixtures, one part of fine particles adhered to the wall of vessel, and another part thereof formed lumps of particles floated on the water surface.

The nature of data set [2]: Adhesion of particles to the wall of a glass sample bottle on shaking. The format is physicochemical. Conditions: 500 mg in a 10-mL glass sample bottle, shaken. On the procedure: Fine particles as obtained in Example 4 (500 mg) was placed in a 10-mL glass sample bottle, and then shaken.
Reduced coenzyme Q10 crystals as obtained in Production Example 1 (500 mg) was placed in a 10-mL glass sample bottle, and then shaken in the same manner as Example 8.

As to `COC1=C(OC)C(=O)C(C/C=C(\C)CC/C=C(\C)CC/C=C(\C)CC/C=C(\C)CC/C=C(\C)CC/C=C(\C)CC/C=C(\C)CC/C=C(\C)CC/C=C(\C)CCC=C(C)C)=C(C)C1=O` [Oxidized coenzyme Q10 crystals, Oxidized coenzyme Q10], in data set [1], the dispersibility in water result is “the particles were not dispersed easily”.

As to `COc1c(O)c(C)c(C/C=C(\C)CC/C=C(\C)CC/C=C(\C)CC/C=C(\C)CC/C=C(\C)CC/C=C(\C)CC/C=C(\C)CC/C=C(\C)CC/C=C(\C)CCC=C(C)C)c(O)c1OC` [reduced coenzyme Q10 crystals, reduced coenzyme Q10], the dispersibility in water entry in data set [1] is recorded as “the particles were not dispersed easily”. Further, the “adhesion to the wall of bottle” value in data set [2] is recorded as “most of the crystals were adhered to the wall”.
